Measurements: US20100298141A1, “SUBSTITUTED PYRIDINE N-OXIDE HERBICIDES” (E. I. DU PONT DE NEMOURS AND COMPANY, priority 2007, published 2010)

Assays:
[1] = test system: velvetleaf; assay: Test A pre-/postemergence greenhouse test; assay type: in vivo, Abutilon theophrasti; settings: for Velvetleaf plant response rating: 0 to 100 scale; for Plant response rating, Velvetleaf: 0 to 100 scale where 0 is no effect and 100 is complete control
How it was run: (§1)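 Seeds sown in a loam soil–sand blend got a preemergence directed soil spray of compound in a non-phytotoxic solvent mixture containing surfactant. Postemergence sprays of the same formulation went at the same time onto plants 2–10 cm tall at the one- to two-leaf stage. Injury was scored visually against untreated controls after about ten days in the greenhouse.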

[2] = test system: barnyardgrass; assay: Test A pre-/postemergence greenhouse test; assay type: in vivo, Echinochloa crus-galli; settings: for Barnyardgrass plant response rating: 0 to 100 scale; for Plant response rating, Barnyardgrass: 0 to 100 scale where 0 is no effect and 100 is complete control
How it was run: as §1

[3] = test system: blackgrass; assay: Test C pre-/postemergence test; assay type: in vivo, Alopecurus myosuroides; settings: for Plant response rating, Blackgrass: 31 g ai/ha, scale 0 to 100 (0 no effect, 100 complete control); for Plant response rating (0 to 100), Blackgrass: 250 g ai/ha
How it was run: (§2)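 Seeds were planted and treated preemergence with test chemical in a non-phytotoxic solvent mixture containing surfactant. Postemergence applications of the same formulation went onto plants 2 to 18 cm tall (1- to 4-leaf stage). A dash marks no test result.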

[4] = test system: lambsquarters; assay: Test C pre-/postemergence test; assay type: in vivo, Chenopodium album; settings: Preemergence; for Lambsquarters plant response rating: 62 g ai/ha, scale 0 to 100; for Plant response rating, Lambsquarters: 31 g ai/ha, scale 0 to 100 (0 no effect, 100 complete control)
How it was run: as §2

[5] = test system: duck salad; assay: Test C flooded paddy test; assay type: in vivo, Heteranthera limosa; settings: Flood
How it was run: (§3)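 Under a constant 3 cm flood, test compounds went directly into the paddy water. Following 13 to 15 days of greenhouse growth, treated species and controls were compared by eye.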

[6] = test system: crabgrass; assay: Test A pre-/postemergence greenhouse test; assay type: in vivo, Digitaria sanguinalis; settings: for Crabgrass, Large plant response rating: 0 to 100 scale; for Plant response rating, Crabgrass, Large: 0 to 100 scale where 0 is no effect and 100 is complete control
How it was run: as §1

[7] = test system: velvetleaf; assay: Test C pre-/postemergence test; assay type: in vivo, Abutilon theophrasti; settings: Preemergence; for Velvetleaf plant response rating: 62 g ai/ha, scale 0 to 100; for Plant response rating, Velvetleaf: 31 g ai/ha, scale 0 to 100 (0 no effect, 100 complete control)
How it was run: as §2

[8] = test system: pigweed; assay: Test C pre-/postemergence test; assay type: in vivo, Amaranthus retroflexus; settings: Preemergence; for Pigweed plant response rating: 62 g ai/ha, scale 0 to 100; for Plant response rating, Pigweed: 31 g ai/ha, scale 0 to 100 (0 no effect, 100 complete control)
How it was run: as §2

[9] = test system: common ragweed; assay: Test C pre-/postemergence test; assay type: in vivo, Ambrosia elation; settings: Preemergence; for Ragweed plant response rating: 62 g ai/ha, scale 0 to 100
How it was run: as §2

[10] = test system: barnyardgrass; assay: Test C flooded paddy test; assay type: in vivo, Echinochloa crus-galli; settings: Flood
How it was run: as §3

[11] = test system: woolly cupgrass; assay: Test C pre-/postemergence test; assay type: in vivo, Eriochloa villosa; settings: Preemergence; for Cupgrass, Woolly plant response rating: 62 g ai/ha, scale 0 to 100; for Plant response rating, Cupgrass, Woolly: 31 g ai/ha, scale 0 to 100 (0 no effect, 100 complete control); for Plant response rating (0 to 100), Cupgrass, Woolly: 250 g ai/ha
How it was run: as §2

[12] = test system: soybean; assay: Test C pre-/postemergence test; assay type: in vivo, Glycine max; settings: Preemergence
How it was run: as §2

[13] = test system: downy brome; assay: Test C pre-/postemergence test; assay type: in vivo, Bromus tectorum; settings: for Plant response rating, Bromegrass, Downy: 31 g ai/ha, scale 0 to 100 (0 no effect, 100 complete control); for Plant response rating (0 to 100), Bromegrass, Downy: 250 g ai/ha
How it was run: as §2

[14] = test system: catchweed bedstraw; assay: Test C pre-/postemergence test; assay type: in vivo, Galium aparine; settings: Preemergence; for Galium plant response rating: 62 g ai/ha, scale 0 to 100; for Plant response rating, Galium: 31 g ai/ha, scale 0 to 100 (0 no effect, 100 complete control); for Plant response rating (0 to 100), Galium: 250 g ai/ha
How it was run: as §2

[15] = test system: green foxtail; assay: Test C pre-/postemergence test; assay type: in vivo, Setaria viridis; settings: Preemergence; for Foxtail, Green plant response rating: 62 g ai/ha, scale 0 to 100; for Plant response rating, Foxtail, Green: 31 g ai/ha, scale 0 to 100 (0 no effect, 100 complete control); for Plant response rating (0 to 100), Foxtail, Green: 250 g ai/ha
How it was run: as §2

[16] = test system: giant foxtail; assay: Test A pre-/postemergence greenhouse test; assay type: in vivo, Setaria faberi; settings: for Foxtail, Giant plant response rating: 0 to 100 scale; for Plant response rating, Foxtail, Giant: 0 to 100 scale where 0 is no effect and 100 is complete control
How it was run: as §1

[17] = test system: Surinam grass; assay: Test C pre-/postemergence test; assay type: in vivo, Brachiaria decumbens; settings: Preemergence; for Surinam Grass plant response rating: 62 g ai/ha, scale 0 to 100; for Plant response rating, Surinam Grass: 31 g ai/ha, scale 0 to 100 (0 no effect, 100 complete control)
How it was run: as §2

[18] = Postemergence, 125 g ai/ha, 0 is no effect, 100 is complete control
[19] = Postemergence, 500 g ai/ha, 0 is no effect, 100 is complete control
[20] = Preemergence, 125 g ai/ha, 0 no effect, 100 complete control
[21] = 62 g ai/ha, Preemergence, scale 0 to 100
[22] = preemergence, 125 g ai/ha, scale 0 (no effect) to 100 (complete control)
[23] = 31 g ai/ha, scale 0 to 100 (0 no effect, 100 complete control)
[24] = 62 g ai/ha, scale 0 to 100, 0 no effect, 100 complete control, 13 to 15 days
[25] = 125 g ai/ha, scale 0 to 100, 0 no effect, 100 complete control, 13 to 15 days
[26] = 250 g ai/ha, scale 0 to 100, 0 no effect, 100 complete control, 13 to 15 days

## Cc1cc[n+]([O-])c([S+]([O-])Cc2c(C(F)(F)F)nn(C)c2OCC(F)(F)F)c1 (racemic) [Compound 30]
[1]; [18]
  Velvetleaf plant response rating: 50
[1]; [19]
  Velvetleaf plant response rating: 70
[1]; [20]
  Velvetleaf plant response rating: 90
[1]; Preemergence, 500 g ai/ha
  Plant response rating, Velvetleaf: 100
[2]; [18]
  Barnyardgrass plant response rating: 70
[2]; [19]
  Barnyardgrass plant response rating: 90
[2]; [20]
  Barnyardgrass plant response rating: 100
[2]; Preemergence, 500 g ai/ha
  Plant response rating, Barnyardgrass: 100
[3]; [21]
  Blackgrass plant response rating: 100
[3]; Preemergence
  Plant response rating, Blackgrass: 80
  Plant response rating (0 to 100), Blackgrass: 100
[3]; [22]
  Blackgrass plant response rating: 100
[4]
  Lambsquarters plant response rating: 100
  Plant response rating, Lambsquarters: 100
[5]; [23]
  Plant response rating, Ducksalad: 65
[5]; [24]
  Plant response rating, Ducksalad: 75
[5]; [25]
  Plant response rating, Ducksalad: 100
[5]; [26]
  Plant response rating, Ducksalad: 100
[6]; [18]
  Crabgrass, Large plant response rating: 70
[6]; [19]
  Crabgrass, Large plant response rating: 90
[6]; [20]
  Crabgrass, Large plant response rating: 100
[6]; Preemergence, 500 g ai/ha
  Plant response rating, Crabgrass, Large: 100
[7]
  Velvetleaf plant response rating: 100
  Plant response rating, Velvetleaf: 70
[8]
  Pigweed plant response rating: 100
  Plant response rating, Pigweed: 100
[9]
  Ragweed plant response rating: 60
[9]; [23]
  Plant response rating, Ragweed: 0
[10]; [23]
  Plant response rating, Barnyardgrass: 0
[10]; [24]
  Plant response rating, Barnyardgrass: 0
[10]; [25]
  Plant response rating, Barnyardgrass: 20
[10]; [26]
  Plant response rating, Barnyardgrass: 65
[11]
  Cupgrass, Woolly plant response rating: 100
  Plant response rating, Cupgrass, Woolly: 50
  Plant response rating (0 to 100), Cupgrass, Woolly: 100
[12]; [23]
  Plant response rating, Soybean: 60
[13]; [21]
  Bromegrass, Downy plant response rating: 0
[13]; Preemergence
  Plant response rating, Bromegrass, Downy: 0
  Plant response rating (0 to 100), Bromegrass, Downy: 60
[13]; [22]
  Bromegrass, Downy plant response rating: 60
[14]
  Galium plant response rating: 100
  Plant response rating, Galium: 100
  Plant response rating (0 to 100), Galium: 100
[15]
  Foxtail, Green plant response rating: 100
  Plant response rating, Foxtail, Green: 100
  Plant response rating (0 to 100), Foxtail, Green: 100
[16]; [18]
  Foxtail, Giant plant response rating: 80
[16]; [19]
  Foxtail, Giant plant response rating: 90
[16]; [20]
  Foxtail, Giant plant response rating: 100
[16]; Preemergence, 500 g ai/ha
  Plant response rating, Foxtail, Giant: 100
[17]
  Surinam Grass plant response rating: 100
  Plant response rating, Surinam Grass: 60

## CC(c1c(C(F)(F)F)nn(C)c1OCC(F)(F)F)S(=O)(=O)c1cccc[n+]1[O-] (racemic) [Compound 33]
[1]; [18]
  Velvetleaf plant response rating: 40
[1]; [19]
  Velvetleaf plant response rating: 60
[1]; [20]
  Velvetleaf plant response rating: 70
[1]; Preemergence, 500 g ai/ha
  Plant response rating, Velvetleaf: 100
[2]; [18]
  Barnyardgrass plant response rating: 70
[2]; [19]
  Barnyardgrass plant response rating: 100
[2]; [20]
  Barnyardgrass plant response rating: 100
[2]; Preemergence, 500 g ai/ha
  Plant response rating, Barnyardgrass: 100
[3]; [21]
  Blackgrass plant response rating: 85
[3]; Preemergence
  Plant response rating, Blackgrass: 80
  Plant response rating (0 to 100), Blackgrass: 100
[3]; [22]
  Blackgrass plant response rating: 100
[4]
  Lambsquarters plant response rating: 100
  Plant response rating, Lambsquarters: 90
[5]; [23]
  Plant response rating, Ducksalad: 0
[5]; [24]
  Plant response rating, Ducksalad: 0
[5]; [25]
  Plant response rating, Ducksalad: 45
[5]; [26]
  Plant response rating, Ducksalad: 95
[6]; [18]
  Crabgrass, Large plant response rating: 90
[6]; [19]
  Crabgrass, Large plant response rating: 90
[6]; [20]
  Crabgrass, Large plant response rating: 90
[6]; Preemergence, 500 g ai/ha
  Plant response rating, Crabgrass, Large: 100
[7]
  Velvetleaf plant response rating: 100
  Plant response rating, Velvetleaf: 100
[8]
  Pigweed plant response rating: 100
  Plant response rating, Pigweed: 100
[9]
  Ragweed plant response rating: 10
[10]; [23]
  Plant response rating, Barnyardgrass: 30
[10]; [24]
  Plant response rating, Barnyardgrass: 30
[10]; [25]
  Plant response rating, Barnyardgrass: 30
[10]; [26]
  Plant response rating, Barnyardgrass: 80
[11]
  Cupgrass, Woolly plant response rating: 98
  Plant response rating, Cupgrass, Woolly: 85
  Plant response rating (0 to 100), Cupgrass, Woolly: 100
[12]; 62 g ai/ha, scale 0 to 100
  Soybean plant response rating: 60
[13]; [21]
  Bromegrass, Downy plant response rating: 20
[13]; Preemergence
  Plant response rating, Bromegrass, Downy: 0
  Plant response rating (0 to 100), Bromegrass, Downy: 98
[13]; [22]
  Bromegrass, Downy plant response rating: 70
[14]
  Galium plant response rating: 100
  Plant response rating, Galium: 100
  Plant response rating (0 to 100), Galium: 100
[15]
  Foxtail, Green plant response rating: 75
  Plant response rating, Foxtail, Green: 75
  Plant response rating (0 to 100), Foxtail, Green: 100
[16]; [18]
  Foxtail, Giant plant response rating: 90
[16]; [19]
  Foxtail, Giant plant response rating: 90
[16]; [20]
  Foxtail, Giant plant response rating: 100
[16]; Preemergence, 500 g ai/ha
  Plant response rating, Foxtail, Giant: 100
[17]
  Surinam Grass plant response rating: 100
  Plant response rating, Surinam Grass: 80
